Legend:
[1] = system: purple nutsedge; test: Test B pre/postemergence purple nutsedge; assay type: in vivo, Cyperus rotundus
Procedure, shortened: (§1)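 Response is a visual 0-to-10 score relative to untreated plants, where 0 means no effect and 10 means complete control, taken twelve to sixteen days after application. Treatments went onto soil at planting and onto foliage of 1- to 4-leaf plants, using a surfactant-containing non-phytotoxic solvent.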

[2] = system: rape; test: Test B pre/postemergence rape; assay type: in vivo, Brassica napus
Procedure, shortened: as §1

[3] = system: smallflower flatsedge; test: Test B flood test smallflower flatsedge; assay type: in vivo, Cyperus difformis
Procedure, shortened: (§2)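 Each value is a visual injury score relative to controls, with 10 meaning complete control and 0 no effect. Evaluation took place twelve to sixteen days after the 2-leaf-stage plants were treated and kept in the greenhouse.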

[4] = system: cocklebur; test: Test B pre/postemergence cocklebur; assay type: in vivo, Xanthium strumarium
Procedure, shortened: as §1

[5] = system: bamyardgrass; test: Test B flood test barnyardgrass; assay type: in vivo, Echinochloa crus-galli
Procedure, shortened: as §2

[6] = system: velvetleaf; test: Test B pre/postemergence velvetleaf; assay type: in vivo, Abutilon theophrasti
Procedure, shortened: as §1

[7] = system: pigweed; test: Test B pre/postemergence pigweed; assay type: in vivo, Amaranthus retroflexus
Procedure, shortened: as §1

[8] = system: corn; test: Test B pre/postemergence corn; assay type: in vivo, Zea mays
Procedure, shortened: as §1

[9] = system: wheat; test: Test B pre/postemergence wheat; assay type: in vivo, Triticum aestivum
Procedure, shortened: as §1

[10] = system: bedstraw; test: Test B pre/postemergence bedstraw; assay type: in vivo, Galium aparine
Procedure, shortened: as §1

[11] = system: soybean; test: Test B pre/postemergence soybean; assay type: in vivo, Glycine max
Procedure, shortened: as §1

[12] = system: surinam grass; test: Test B pre/postemergence surinam grass; assay type: in vivo, Brachiaria decumbens
Procedure, shortened: as §1

[13] = system: wild oat; test: Test B pre/postemergence wild oat; assay type: in vivo, Avena fatua
Procedure, shortened: as §1

[14] = system: sugar beet; test: Test B pre/postemergence sugar beet; assay type: in vivo, Beta vulgaris
Procedure, shortened: as §1

[15] = system: blackgrass; test: Test B pre/postemergence blackgrass; assay type: in vivo, Alopecurus myosuroides
Procedure, shortened: as §1

[16] = system: crabgrass; test: Test B pre/postemergence crabgrass; assay type: in vivo, Digitaria sanguinalis
Procedure, shortened: as §1

[17] = Preemergence, Rate 62 g/ha, scale of 0 to 10 where 0 is no effect and 10 is complete control
[18] = Preemergence, Rate 125 g/ha, 0 is no effect, 10 is complete control
[19] = Preemergence, Rate 250 g/ha, scale 0 to 10, 0 is no effect, 10 is complete control
[20] = Preemergence, Rate 500 g/ha, scale of 0 to 10 where 0 is no effect and 10 is complete control
[21] = Rate 62 g/ha, Postemergence, scale of 0 to 10 where 0 is no effect and 10 is complete control
[22] = Rate 125 g/ha, Postemergence, scale 0 to 10
[23] = Rate 500 g/ha, Postemergence, scale 0 to 10
[24] = Rate 62 g/ha, headed Pre-emergence (flood test species), scale 0 to 10 (0 no effect, 10 complete control)
[25] = Rate 125 g/ha, Pre-emergence, flood test species, scale 0 to 10 where 0 is no effect and 10 is complete control
[26] = Rate 250 g/ha, Pre-emergence, flood-test species, scale 0 to 10, 0 is no effect, 10 is complete control

Cc1ccccc1-n1c(=O)on(C(=O)N(c2ccc(S(C)(=O)=O)cc2)C(C)C)c1=O [Compound 203]
0: Nutsedge plant response rating [1, 17] | Nutsedge plant response rating (0 to 10 scale) [1, 18] | Nutsedge plant response rating [1, 19] | Plant response rating, Nutsedge [1, 20] | Nutsedge plant response rating [1, 21] | Nutsedge plant response rating [1, 22] | Plant response rating (0 to 10; 0 is no effect, 10 is complete control), Nutsedge ([1]; Rate 250 g/ha, Postemergence) | Nutsedge plant response rating [1, 23] | Rape plant response rating [2, 17] | Rape plant response rating (0 to 10 scale) [2, 18] | Rape plant response rating [2, 19] | Plant response rating, Rape [2, 20] | Rape plant response rating [2, 21] | Rape plant response rating [2, 22] | Plant response rating (0 to 10; 0 is no effect, 10 is complete control), Rape ([2]; Rate 250 g/ha, Postemergence) | Rape plant response rating [2, 23] | S. Flatsedge plant response rating [3, 24] | S. Flatsedge plant response rating [3, 25] | S. Flatsedge plant response rating [3, 26] | S. Flatsedge plant response rating ([3]; Rate 500 g/ha, Pre-emergence, flood test species, scale 0 to 10 (0 no effect, 10 complete control)) | Cocklebur plant response rating [4, 17] | Cocklebur plant response rating (0 to 10 scale) [4, 18] | Cocklebur plant response rating [4, 19] | Plant response rating, Cocklebur [4, 20] | Cocklebur plant response rating [4, 21] | Cocklebur plant response rating [4, 22] | Plant response rating (0 to 10; 0 is no effect, 10 is complete control), Cocklebur ([4]; Rate 250 g/ha, Postemergence) | Cocklebur plant response rating [4, 23] | Barnyardgrass plant response rating [5, 24] | Barnyardgrass plant response rating [5, 25] | Barnyardgrass plant response rating [5, 26] | Plant response rating, Barnyardgrass ([5]; Rate 500 g/ha, headed Pre-emergence (flood test species), scale 0 to 10 (0 no effect, 10 complete control)) | Velvetleaf plant response rating [6, 17] | Velvetleaf plant response rating [6, 19] | Plant response rating, Velvetleaf [6, 20] | Velvetleaf plant response rating [6, 21] | Velvetleaf plant response rating [6, 22] | Plant response rating (0 to 10; 0 is no effect, 10 is complete control), Velvetleaf ([6]; Rate 250 g/ha, Postemergence) | Redroot pigweed plant response rating [7, 17] | Redroot pigweed plant response rating (0 to 10 scale) [7, 18] | Redroot pigweed plant response rating [7, 19] | Plant response rating, Redroot pigweed [7, 20] | Redroot pigweed plant response rating [7, 21] | Redroot pigweed plant response rating [7, 22] | Plant response rating (0 to 10; 0 is no effect, 10 is complete control), Redroot pigweed ([7]; Rate 250 g/ha, Postemergence) | Redroot pigweed plant response rating [7, 23] | Corn plant response rating [8, 17] | Corn plant response rating (0 to 10 scale) [8, 18] | Corn plant response rating [8, 19] | Plant response rating, Corn [8, 20] | Corn plant response rating [8, 21] | Corn plant response rating [8, 22] | Plant response rating (0 to 10; 0 is no effect, 10 is complete control), Corn ([8]; Rate 250 g/ha, Postemergence) | Corn plant response rating [8, 23] | Wheat plant response rating [9, 17] | Wheat plant response rating [9, 19] | Plant response rating, Wheat [9, 20] | Wheat plant response rating [9, 21] | Wheat plant response rating [9, 22] | Plant response rating (0 to 10; 0 is no effect, 10 is complete control), Wheat ([9]; Rate 250 g/ha, Postemergence) | Bedstraw plant response rating [10, 17] | Bedstraw plant response rating (0 to 10 scale) [10, 18] | Bedstraw plant response rating [10, 19] | Plant response rating, Bedstraw [10, 20] | Bedstraw plant response rating [10, 21] | Bedstraw plant response rating [10, 22] | Plant response rating (0 to 10; 0 is no effect, 10 is complete control), Bedstraw ([10]; Rate 250 g/ha, Postemergence) | Bedstraw plant response rating [10, 23] | Soybean plant response rating [11, 17] | Soybean plant response rating (0 to 10 scale) [11, 18] | Soybean plant response rating [11, 19] | Plant response rating, Soybean [11, 20] | Soybean plant response rating [11, 21] | Soybean plant response rating [11, 22] | Plant response rating (0 to 10; 0 is no effect, 10 is complete control), Soybean ([11]; Rate 250 g/ha, Postemergence) | Soybean plant response rating [11, 23] | B. signalgrass plant response rating [12, 17] | B. signalgrass plant response rating (0 to 10 scale) [12, 18] | B. signalgrass plant response rating [12, 19] | Plant response rating, B. signalgrass [12, 20] | B. signalgrass plant response rating [12, 21] | B. signalgrass plant response rating ([12]; Rate 125 g/ha, Postemergence, scale 0 (no effect) to 10 (complete control)) | Plant response rating, B. signalgrass ([12]; Rate 250 g/ha, Postemergence, scale 0 to 10, 0 is no effect, 10 is complete control) | B. signalgrass plant response rating ([12]; Rate 500 g/ha, Postemergence, scale 0 to 10, 0 no effect, 10 complete control) | Wild oats plant response rating [13, 17] | Wild oats plant response rating [13, 19] | Plant response rating, Wild oats [13, 20] | Wild oats plant response rating [13, 21] | Wild oats plant response rating [13, 22] | Plant response rating (0 to 10; 0 is no effect, 10 is complete control), Wild oats ([13]; Rate 250 g/ha, Postemergence) | Sugarbeets plant response rating [14, 17] | Sugarbeets plant response rating (0 to 10 scale) [14, 18] | Sugarbeets plant response rating [14, 19] | Plant response rating, Sugarbeets [14, 20] | Sugarbeets plant response rating [14, 21] | Sugarbeets plant response rating [14, 22] | Plant response rating (0 to 10; 0 is no effect, 10 is complete control), Sugarbeets ([14]; Rate 250 g/ha, Postemergence) | Sugarbeets plant response rating [14, 23] | Blackgrass plant response rating [15, 17] | Blackgrass plant response rating (0 to 10 scale) [15, 18] | Blackgrass plant response rating [15, 19] | Plant response rating, Blackgrass [15, 20] | Blackgrass plant response rating [15, 21] | Blackgrass plant response rating [15, 22] | Plant response rating (0 to 10; 0 is no effect, 10 is complete control), Blackgrass ([15]; Rate 250 g/ha, Postemergence) | Blackgrass plant response rating [15, 23] | Crabgrass plant response rating [16, 17] | Crabgrass plant response rating (0 to 10 scale) [16, 18] | Crabgrass plant response rating [16, 19] | Plant response rating, Crabgrass [16, 20] | Crabgrass plant response rating [16, 21] | Crabgrass plant response rating [16, 22] | Plant response rating (0 to 10; 0 is no effect, 10 is complete control), Crabgrass ([16]; Rate 250 g/ha, Postemergence) | Crabgrass plant response rating [16, 23]
